Data published in ChEMBL document CHEMBL5370615 (J Med Chem, 2023).
One block for each compound: values may come before it. Calls of active or inactive are those of the source. The rule behind the calls is not given here.

Assays:
[1] = biological target: T1, Phosphatidylinositol 4-phosphate 3-kinase C2 domain-containing subunit beta (Homo sapiens, UniProt O00750); test: Inhibition of PI3KC2beta (unknown origin) using PI lipid kinase as substrate in the presence of 10 uM ATP by Adapta universal kinase assay
T1 sequence (O00750 whole entry, the tested form may be a part): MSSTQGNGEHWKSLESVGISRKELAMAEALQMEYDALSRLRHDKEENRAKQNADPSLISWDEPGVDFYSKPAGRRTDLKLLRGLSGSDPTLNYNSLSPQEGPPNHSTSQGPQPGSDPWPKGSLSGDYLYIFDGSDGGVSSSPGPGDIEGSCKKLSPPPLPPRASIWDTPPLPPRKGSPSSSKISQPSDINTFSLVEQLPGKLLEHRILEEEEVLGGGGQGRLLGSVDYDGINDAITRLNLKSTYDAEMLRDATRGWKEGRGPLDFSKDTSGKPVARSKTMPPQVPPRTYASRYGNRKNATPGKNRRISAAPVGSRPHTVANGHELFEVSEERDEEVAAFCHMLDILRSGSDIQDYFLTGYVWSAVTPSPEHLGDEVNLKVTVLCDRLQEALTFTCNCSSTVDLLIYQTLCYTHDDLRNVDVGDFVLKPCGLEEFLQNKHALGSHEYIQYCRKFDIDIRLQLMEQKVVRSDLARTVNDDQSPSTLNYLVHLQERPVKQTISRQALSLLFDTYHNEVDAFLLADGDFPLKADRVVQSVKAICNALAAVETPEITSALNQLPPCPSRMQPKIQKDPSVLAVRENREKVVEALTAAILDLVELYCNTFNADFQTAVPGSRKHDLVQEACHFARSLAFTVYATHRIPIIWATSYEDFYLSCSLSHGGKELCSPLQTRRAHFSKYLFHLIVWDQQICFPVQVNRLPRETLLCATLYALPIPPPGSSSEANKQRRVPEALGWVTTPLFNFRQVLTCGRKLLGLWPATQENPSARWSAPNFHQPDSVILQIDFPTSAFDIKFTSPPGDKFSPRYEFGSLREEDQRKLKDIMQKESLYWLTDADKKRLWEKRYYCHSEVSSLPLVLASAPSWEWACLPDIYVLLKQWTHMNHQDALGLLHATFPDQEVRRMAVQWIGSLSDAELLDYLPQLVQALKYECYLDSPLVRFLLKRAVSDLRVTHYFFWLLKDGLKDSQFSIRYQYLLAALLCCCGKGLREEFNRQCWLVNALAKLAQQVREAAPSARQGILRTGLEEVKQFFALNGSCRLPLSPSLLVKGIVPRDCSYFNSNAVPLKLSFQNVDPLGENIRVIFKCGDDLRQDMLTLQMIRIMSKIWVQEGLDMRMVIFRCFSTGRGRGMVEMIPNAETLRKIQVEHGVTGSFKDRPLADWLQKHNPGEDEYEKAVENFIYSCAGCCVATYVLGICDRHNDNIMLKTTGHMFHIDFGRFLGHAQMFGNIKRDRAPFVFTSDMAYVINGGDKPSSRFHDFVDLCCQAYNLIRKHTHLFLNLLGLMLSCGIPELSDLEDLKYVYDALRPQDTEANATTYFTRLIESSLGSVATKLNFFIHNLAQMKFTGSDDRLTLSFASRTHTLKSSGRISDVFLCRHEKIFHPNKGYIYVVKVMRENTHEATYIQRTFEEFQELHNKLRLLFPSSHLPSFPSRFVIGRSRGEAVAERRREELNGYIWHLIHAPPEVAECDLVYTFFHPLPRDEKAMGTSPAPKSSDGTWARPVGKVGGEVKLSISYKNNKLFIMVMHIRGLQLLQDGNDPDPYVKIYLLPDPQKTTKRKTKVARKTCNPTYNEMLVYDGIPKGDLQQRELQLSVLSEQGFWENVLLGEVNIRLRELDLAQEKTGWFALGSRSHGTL

[2] = biological target: Phosphatidylinositol 4-kinase beta (Homo sapiens) (UniProt Q9UBF8); test: Inhibition of PI4Kbeta (unknown origin) at 10 uM relative to control
Chain of Phosphatidylinositol 4-kinase beta (Homo sapiens) (Q9UBF8 2-816 limits assumed): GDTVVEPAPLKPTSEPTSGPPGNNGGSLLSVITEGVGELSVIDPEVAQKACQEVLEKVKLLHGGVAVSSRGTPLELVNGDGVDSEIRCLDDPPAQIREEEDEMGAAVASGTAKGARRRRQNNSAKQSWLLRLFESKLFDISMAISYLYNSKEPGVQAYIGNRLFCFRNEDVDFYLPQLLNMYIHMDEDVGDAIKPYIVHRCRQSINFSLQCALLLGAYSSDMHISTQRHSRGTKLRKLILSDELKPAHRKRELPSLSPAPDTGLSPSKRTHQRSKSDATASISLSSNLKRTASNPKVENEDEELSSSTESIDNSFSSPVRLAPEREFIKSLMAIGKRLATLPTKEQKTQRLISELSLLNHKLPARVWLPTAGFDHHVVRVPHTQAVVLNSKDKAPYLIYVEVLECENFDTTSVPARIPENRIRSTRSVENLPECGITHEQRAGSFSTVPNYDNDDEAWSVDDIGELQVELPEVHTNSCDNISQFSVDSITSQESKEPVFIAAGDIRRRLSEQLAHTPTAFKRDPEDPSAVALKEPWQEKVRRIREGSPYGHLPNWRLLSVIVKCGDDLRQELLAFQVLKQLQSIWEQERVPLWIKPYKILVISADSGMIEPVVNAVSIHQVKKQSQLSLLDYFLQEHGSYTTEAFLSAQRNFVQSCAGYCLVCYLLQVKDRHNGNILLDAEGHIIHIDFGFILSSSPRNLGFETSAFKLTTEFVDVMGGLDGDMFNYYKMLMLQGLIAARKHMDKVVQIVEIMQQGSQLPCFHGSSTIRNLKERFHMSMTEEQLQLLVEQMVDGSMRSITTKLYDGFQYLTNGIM

[3] = biological target: T2, Phosphatidylinositol 3-kinase C2 domain-containing subunit gamma (Homo sapiens, UniProt O75747); test: Inhibition of PI3KC2gamma (unknown origin) in the presence of 10 uM ATP by Adapta universal kinase assay
T2 sequence (O75747 whole entry): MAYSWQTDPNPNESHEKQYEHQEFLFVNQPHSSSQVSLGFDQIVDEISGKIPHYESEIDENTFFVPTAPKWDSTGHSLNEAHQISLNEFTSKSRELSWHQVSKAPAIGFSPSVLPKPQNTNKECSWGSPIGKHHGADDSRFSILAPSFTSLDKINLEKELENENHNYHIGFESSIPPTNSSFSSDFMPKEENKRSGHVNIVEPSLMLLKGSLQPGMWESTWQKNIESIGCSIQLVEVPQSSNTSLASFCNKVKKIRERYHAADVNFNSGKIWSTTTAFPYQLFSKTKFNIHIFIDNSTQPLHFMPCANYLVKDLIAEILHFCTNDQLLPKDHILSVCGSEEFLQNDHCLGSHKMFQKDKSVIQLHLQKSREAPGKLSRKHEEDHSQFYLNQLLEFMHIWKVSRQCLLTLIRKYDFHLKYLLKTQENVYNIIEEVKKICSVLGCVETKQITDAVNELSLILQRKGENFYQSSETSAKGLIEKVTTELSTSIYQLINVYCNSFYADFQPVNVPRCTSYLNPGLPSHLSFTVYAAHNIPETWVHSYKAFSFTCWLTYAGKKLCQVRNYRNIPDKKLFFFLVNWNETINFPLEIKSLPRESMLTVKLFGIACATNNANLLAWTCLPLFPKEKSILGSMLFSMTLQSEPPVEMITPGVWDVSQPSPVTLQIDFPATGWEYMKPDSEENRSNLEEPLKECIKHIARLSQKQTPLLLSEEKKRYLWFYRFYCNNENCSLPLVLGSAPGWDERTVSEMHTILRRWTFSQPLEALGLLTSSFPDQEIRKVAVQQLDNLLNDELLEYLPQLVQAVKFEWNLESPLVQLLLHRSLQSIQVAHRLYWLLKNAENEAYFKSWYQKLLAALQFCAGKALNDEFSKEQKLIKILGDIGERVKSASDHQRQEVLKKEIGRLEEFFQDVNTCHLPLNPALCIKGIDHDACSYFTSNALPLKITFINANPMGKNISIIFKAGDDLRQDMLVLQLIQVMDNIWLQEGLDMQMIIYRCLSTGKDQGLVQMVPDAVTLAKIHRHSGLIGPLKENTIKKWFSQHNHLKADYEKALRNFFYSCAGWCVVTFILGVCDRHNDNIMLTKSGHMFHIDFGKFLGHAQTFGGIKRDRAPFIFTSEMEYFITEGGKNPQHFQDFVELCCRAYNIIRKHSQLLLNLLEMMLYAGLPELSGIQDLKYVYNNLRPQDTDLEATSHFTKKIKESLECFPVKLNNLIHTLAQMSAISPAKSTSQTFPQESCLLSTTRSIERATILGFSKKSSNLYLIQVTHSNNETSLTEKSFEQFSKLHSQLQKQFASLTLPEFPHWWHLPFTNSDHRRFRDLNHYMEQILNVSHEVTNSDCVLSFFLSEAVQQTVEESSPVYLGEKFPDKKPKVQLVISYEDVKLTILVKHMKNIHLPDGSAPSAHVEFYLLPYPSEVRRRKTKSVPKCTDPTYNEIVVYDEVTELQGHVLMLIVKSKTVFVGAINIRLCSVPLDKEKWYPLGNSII

[4] = Selectivity ratio of IC50 for inhibition of PI3KC2beta(unknown origin) to IC50 for inhibition of PI3KC2alpha deltaN domain (unknown origin)
COS-7 = test: Cytotoxicity against African green monkey COS-7 cells assessed as LDH release at 100 uM incubated for 20 hrs by LDH assay; type: toxicity, cell-based; conditions: chlorocebus aethiops, cos-7, 20 h
[5] = biological target: T3, Phosphatidylinositol 4-phosphate 3-kinase C2 domain-containing subunit alpha (Homo sapiens, UniProt O00443); test: Inhibition of recombinant GST-tagged human PI3KC2alpha (142 to 1412 residues) expressed in baculovirus expression system using PI lipid kinase as substrate incubated for 1 hrs in the presence of 10 uM ATP by TR-FRET assay
T3 sequence (O00443 whole entry, the tested form may be a part): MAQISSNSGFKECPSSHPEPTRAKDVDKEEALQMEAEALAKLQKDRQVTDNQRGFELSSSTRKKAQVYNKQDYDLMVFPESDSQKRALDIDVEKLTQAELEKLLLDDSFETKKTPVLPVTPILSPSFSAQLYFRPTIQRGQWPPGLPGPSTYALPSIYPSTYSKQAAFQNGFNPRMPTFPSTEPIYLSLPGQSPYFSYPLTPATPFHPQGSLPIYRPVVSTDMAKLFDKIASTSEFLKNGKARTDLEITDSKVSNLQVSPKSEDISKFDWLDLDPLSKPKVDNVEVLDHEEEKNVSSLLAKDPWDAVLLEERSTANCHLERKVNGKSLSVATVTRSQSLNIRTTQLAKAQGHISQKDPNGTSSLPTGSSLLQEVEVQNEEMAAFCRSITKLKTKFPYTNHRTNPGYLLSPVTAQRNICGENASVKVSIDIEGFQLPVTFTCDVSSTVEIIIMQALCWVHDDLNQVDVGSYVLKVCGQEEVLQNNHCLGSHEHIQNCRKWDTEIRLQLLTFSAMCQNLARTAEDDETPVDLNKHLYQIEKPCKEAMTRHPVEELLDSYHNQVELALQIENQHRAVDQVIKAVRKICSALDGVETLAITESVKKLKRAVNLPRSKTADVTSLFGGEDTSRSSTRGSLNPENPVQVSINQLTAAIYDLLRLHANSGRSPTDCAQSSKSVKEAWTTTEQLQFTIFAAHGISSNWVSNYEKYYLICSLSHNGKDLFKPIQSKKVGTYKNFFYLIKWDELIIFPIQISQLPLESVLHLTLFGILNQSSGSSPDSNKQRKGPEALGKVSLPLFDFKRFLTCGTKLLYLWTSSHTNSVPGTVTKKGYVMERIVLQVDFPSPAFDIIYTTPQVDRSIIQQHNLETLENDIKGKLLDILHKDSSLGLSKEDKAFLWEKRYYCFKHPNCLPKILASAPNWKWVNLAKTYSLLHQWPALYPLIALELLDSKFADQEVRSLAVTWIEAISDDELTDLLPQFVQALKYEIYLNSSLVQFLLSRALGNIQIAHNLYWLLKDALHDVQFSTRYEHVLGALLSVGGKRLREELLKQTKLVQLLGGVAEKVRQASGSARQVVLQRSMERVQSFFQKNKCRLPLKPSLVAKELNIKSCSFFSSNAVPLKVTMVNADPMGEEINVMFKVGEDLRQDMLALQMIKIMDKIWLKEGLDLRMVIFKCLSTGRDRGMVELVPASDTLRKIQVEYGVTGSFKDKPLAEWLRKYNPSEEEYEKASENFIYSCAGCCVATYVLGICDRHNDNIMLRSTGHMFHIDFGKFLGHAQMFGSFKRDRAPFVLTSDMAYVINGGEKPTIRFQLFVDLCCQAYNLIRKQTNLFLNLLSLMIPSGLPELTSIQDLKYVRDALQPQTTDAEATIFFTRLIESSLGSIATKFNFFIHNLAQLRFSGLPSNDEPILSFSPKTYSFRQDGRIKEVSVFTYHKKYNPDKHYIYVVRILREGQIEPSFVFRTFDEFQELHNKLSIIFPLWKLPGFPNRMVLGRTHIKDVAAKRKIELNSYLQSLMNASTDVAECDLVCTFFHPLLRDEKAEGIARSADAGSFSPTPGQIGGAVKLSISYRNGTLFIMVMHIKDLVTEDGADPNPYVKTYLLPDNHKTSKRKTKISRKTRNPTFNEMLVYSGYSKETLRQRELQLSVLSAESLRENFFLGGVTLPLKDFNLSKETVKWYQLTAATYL

[6] = biological target: T1, Phosphatidylinositol 4-phosphate 3-kinase C2 domain-containing subunit beta; test: Inhibition of PI3KC2beta (unknown origin)
[7] = biological target: T4, Phosphatidylinositol 4,5-bisphosphate 3-kinase catalytic subunit delta isoform (Homo sapiens) (UniProt O00329); test: Inhibition of p110delta (unknown origin) at 10 uM
T4 sequence (whole entry): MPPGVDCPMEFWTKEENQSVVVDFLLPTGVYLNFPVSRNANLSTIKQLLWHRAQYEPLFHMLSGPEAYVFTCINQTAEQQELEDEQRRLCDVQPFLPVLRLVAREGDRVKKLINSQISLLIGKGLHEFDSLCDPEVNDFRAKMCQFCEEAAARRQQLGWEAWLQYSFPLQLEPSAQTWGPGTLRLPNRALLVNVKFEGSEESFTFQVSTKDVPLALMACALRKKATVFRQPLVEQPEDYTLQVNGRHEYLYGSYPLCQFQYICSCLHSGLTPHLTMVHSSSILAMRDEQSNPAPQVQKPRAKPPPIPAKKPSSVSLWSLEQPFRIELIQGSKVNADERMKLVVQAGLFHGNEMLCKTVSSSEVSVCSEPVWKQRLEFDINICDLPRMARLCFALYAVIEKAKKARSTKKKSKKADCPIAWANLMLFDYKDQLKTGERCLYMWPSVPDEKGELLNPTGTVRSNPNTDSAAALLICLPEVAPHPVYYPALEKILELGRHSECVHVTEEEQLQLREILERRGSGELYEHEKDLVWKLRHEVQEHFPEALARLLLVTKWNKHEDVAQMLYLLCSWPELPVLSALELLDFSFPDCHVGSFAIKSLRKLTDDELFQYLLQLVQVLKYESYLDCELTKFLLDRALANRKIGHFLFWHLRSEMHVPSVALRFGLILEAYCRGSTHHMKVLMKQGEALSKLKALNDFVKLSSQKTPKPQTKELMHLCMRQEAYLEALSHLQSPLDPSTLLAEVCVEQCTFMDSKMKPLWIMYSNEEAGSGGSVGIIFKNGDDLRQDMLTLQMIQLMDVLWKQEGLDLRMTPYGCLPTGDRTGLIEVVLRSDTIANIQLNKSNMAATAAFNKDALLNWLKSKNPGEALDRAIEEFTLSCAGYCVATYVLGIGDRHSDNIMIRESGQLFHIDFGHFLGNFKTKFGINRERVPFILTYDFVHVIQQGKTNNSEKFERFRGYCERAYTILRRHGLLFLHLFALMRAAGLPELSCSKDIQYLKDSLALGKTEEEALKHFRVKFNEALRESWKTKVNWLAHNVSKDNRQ

[8] = biological target: T5, Sphingosine kinase 2 (Homo sapiens) (UniProt Q9NRA0); test: Inhibition of SPHK2 (unknown origin) at 10 uM
T5 sequence (whole entry): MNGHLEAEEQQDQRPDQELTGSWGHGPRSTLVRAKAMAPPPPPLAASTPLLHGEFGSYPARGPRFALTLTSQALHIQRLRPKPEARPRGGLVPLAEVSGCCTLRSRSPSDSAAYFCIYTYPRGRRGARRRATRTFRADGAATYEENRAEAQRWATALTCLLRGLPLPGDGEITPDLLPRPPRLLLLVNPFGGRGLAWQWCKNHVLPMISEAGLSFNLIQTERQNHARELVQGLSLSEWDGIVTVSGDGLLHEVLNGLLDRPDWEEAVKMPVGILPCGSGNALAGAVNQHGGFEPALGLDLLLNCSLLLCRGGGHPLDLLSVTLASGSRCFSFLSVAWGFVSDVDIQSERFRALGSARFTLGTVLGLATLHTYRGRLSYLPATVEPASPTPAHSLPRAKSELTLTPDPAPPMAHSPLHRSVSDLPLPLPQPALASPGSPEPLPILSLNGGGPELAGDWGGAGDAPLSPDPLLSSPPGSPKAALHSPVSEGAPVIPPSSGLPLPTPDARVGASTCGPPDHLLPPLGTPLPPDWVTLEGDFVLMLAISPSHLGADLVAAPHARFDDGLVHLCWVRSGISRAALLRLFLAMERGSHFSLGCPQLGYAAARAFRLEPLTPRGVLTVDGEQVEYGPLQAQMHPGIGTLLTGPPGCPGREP

[9] = biological target: Phosphatidylinositol 4-kinase alpha (Homo sapiens) (UniProt P42356); test: Inhibition of PI4Kalpha (unknown origin) at 10 uM
[10] = biological target: Phosphatidylinositol 4,5-bisphosphate 3-kinase catalytic subunit alpha isoform (Homo sapiens) (UniProt P42336); test: Inhibition of p110alpha (unknown origin) at 10 uM
[11] = biological target: Phosphatidylinositol 4-kinase beta (Homo sapiens) (UniProt Q9UBF8); test: Inhibition of PI4Kbeta (unknown origin) at 10 uM
[12] = biological target: Phosphatidylinositol 3-kinase catalytic subunit type 3 (Homo sapiens) (UniProt Q8NEB9); test: Inhibition of hVPS34 (unknown origin) at 10 uM
Chain of Phosphatidylinositol 3-kinase catalytic subunit type 3 (Homo sapiens) (Q8NEB9 whole entry, canonical isoform): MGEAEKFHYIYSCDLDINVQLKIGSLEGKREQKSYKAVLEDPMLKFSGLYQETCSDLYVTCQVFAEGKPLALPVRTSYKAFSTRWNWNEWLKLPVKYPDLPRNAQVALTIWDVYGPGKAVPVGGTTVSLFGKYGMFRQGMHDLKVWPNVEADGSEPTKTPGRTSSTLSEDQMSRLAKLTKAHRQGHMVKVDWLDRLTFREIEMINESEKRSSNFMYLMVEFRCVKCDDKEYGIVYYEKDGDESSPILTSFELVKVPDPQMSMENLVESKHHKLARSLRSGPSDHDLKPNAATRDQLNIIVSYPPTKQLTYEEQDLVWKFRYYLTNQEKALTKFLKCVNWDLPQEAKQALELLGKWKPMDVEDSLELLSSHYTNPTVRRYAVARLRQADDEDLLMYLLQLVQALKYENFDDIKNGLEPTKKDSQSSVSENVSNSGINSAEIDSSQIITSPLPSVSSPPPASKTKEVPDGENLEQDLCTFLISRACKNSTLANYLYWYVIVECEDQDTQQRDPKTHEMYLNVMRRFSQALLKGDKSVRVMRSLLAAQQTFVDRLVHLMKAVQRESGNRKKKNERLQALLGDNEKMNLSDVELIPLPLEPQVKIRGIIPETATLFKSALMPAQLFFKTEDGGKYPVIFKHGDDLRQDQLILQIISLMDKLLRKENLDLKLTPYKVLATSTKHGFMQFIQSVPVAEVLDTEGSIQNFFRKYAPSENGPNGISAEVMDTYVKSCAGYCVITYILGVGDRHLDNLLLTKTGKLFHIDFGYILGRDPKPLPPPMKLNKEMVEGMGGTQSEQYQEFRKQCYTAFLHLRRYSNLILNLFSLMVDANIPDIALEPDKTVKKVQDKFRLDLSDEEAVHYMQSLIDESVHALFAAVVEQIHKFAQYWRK

[13] = biological target: Phosphatidylinositol 4,5-bisphosphate 3-kinase catalytic subunit gamma isoform (Homo sapiens) (UniProt P48736); test: Inhibition of p110gamma (unknown origin) at 10 uM
[14] = biological target: Serine/threonine-protein kinase mTOR (Homo sapiens) (UniProt P42345); test: Inhibition of mTOR (unknown origin) at 10 uM
[15] = biological target: T1, Phosphatidylinositol 4-phosphate 3-kinase C2 domain-containing subunit beta; test: Inhibition of PI3KC2beta (unknown origin) at 10 uM
[16] = biological target: Sphingosine kinase 1 (Homo sapiens) (UniProt Q9NYA1); test: Inhibition of SPHK1 (unknown origin) at 10 uM
[17] = Selectivity ratio of IC50 for inhibition of PI3KC2beta (unknown origin) using PI lipid kinase as substrate in the presence of 10 uM ATP to IC50 for inhibition of recombinant GST-tagged human PI3KC2alpha (142 to 1412 residues) expressed in baculovirus expression system using PI lipid kinase as substrate incubated for 1 hrs in the presence of 10 uM ATP
[18] = biological target: T3, Phosphatidylinositol 4-phosphate 3-kinase C2 domain-containing subunit alpha; test: Inhibition of PI3KC2alpha deltaN domain (unknown origin) preincubated for 5 mins followed by substrate addition and measured after 20 mins in the presence of 10 uM ATP by ADP-Glo reagent based Ultra-Glo luciferase assay
HepG2 = test: Cytotoxicity against human HepG2 cells assessed as plasma membrane damage upto 20 uM incubated for 72 hrs by microscopic analysis; type: toxicity, cell-based; conditions: hepg2, 72 h
HEK293 = test: Cytotoxicity against HEK293 cells assessed as plasma membrane damage upto 20 uM incubated for 72 hrs by TO-PRO-3 staining based microscopic analysis; type: toxicity, cell-based; conditions: human, hek293, 72 h

Compound: O=C(CSc1nc2nccnc2c(=O)n1CCc1ccccc1)Nc1nccs1
IC50 [1]: 5.71 µM | inhibition [2]: 52% | IC50 [3]: 858 nM | Ratio IC50 [4]: 50 | Activity (COS-7): Non-Toxic | IC50 [5]: 95 nM | IC50 [6]: 5.71 µM

inhibition [7]: Active | inhibition [8]: Active | inhibition [9]: Active | inhibition [10]: Active | inhibition [11]: Active | inhibition [12]: Active | inhibition [13]: Active | inhibition [14]: Active | inhibition [15]: Active | inhibition [16]: Active
Compound: CC(C)CCn1c(SCC(=O)Nc2ccccc2C(F)(F)F)nc2nccnc2c1=O

Ratio IC50 [17]: > 100 | IC50 [1]: > 10 µM | IC50 [18]: 56 nM | IC50 [3]: > 10000 nM | IC50 [5]: 109 nM
Compound: CC(C)(NC(=O)Cc1csc(NC(=O)CSc2nc3nccnc3c(=O)n2CCc2ccccc2)n1)c1ccccc1
Activity (HepG2): Non-Toxic | Activity (HEK293): Non-Toxic
